Results published in PubChem BioAssay AID588643 (The Scripps Research Institute Molecular Screening Center, 2011).
Calls of active or inactive are those of the source.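 Rule for the calls: active = phospho-ERK protein band moved at least 30% up or down from the DMSO-only control band; inactive = the rest.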

Assays:
[1] = system: HCT116 phospho-ERK1/2 western blot, 24 h; assay: phospho-ERK1/2 protein level change, either direction, late-stage follow-up, counter-screen for KLF5 inhibitor project, cell-based, HCT116 colorectal carcinoma, chemiluminescent western blot (AID 588643); settings: measured here: phospho-ERK fold change vs DMSO; at 10 µM; stronger effect = lower value
[2] = molecular target: Mitogen-activated protein kinase 1 (Homo sapiens) (UniProt P28482); assay: as above; settings: HCT116 phospho-ERK1/2 western blot, 24 h; at 10 µM; stronger effect = higher value

## CN(C(=O)COC(=O)/C=C/c1cccc([N+](=O)[O-])c1)C1CCS(=O)(=O)C1 (configuration not stated)
[1]
  fold change: 1.2
[2]
  inhibition: -20% (inactive)
